Source: US20100227897A1, “Composition for Controlling Colorado Potato Beetles” (FMC CORPORATION, priority 2006, published 2010)

System: Colorado potato beetles (Leptinotarsa decemlineata Say)
Assay: Field test of foliar sprays on potato plots: efficacy on Colorado potato beetles, number of larvae alive
Format: in vivo
Details: for Number Larvae Alive 3 DAT: 3 days after treatment; for Number Larvae Alive 3 DAT / Number Larvae Alive 7 DAT / Number Larvae Alive 14 DAT / Number Larvae Alive 21 DAT / Number Larvae Alive 28 DAT: foliar spray; for Number Larvae Alive 7 DAT: 7 days after treatment; for Number Larvae Alive 14 DAT: 14 days after treatment; for Number Larvae Alive 21 DAT: 21 days after treatment; for Number Larvae Alive 28 DAT: 28 days after treatment; for Number Larvae Alive 0 Days: before treatment (0 days, baseline)
Protocol: The compositions of the present invention were tested for Colorado Potato Beetle activity in the following manner:
Test compositions made up of Fury 10 EW, Mospilan 20 SP and Regent 200 SC were prepared that provided appropriate rates of application of combinations of zeta-cypermethrin, acetamiprid and fipronil, as well as zeta-cypermethrin, acetamiprid and fipronil alone.
The test was set up as a randomized complete block with 3 replicates. Each test plot was 24 meters square containing 3 rows of 50 plants. All test materials were applied as a foliar spray in 300 liters per hectare of water using a PILMET 212 sprayer at 0.35 Mpa. Observations were made before treatment (0 days), 3 days after treatment (DAT), 7 DAT, 14 DAT, 21 DAT and 28 DAT. For each observation 50 plants were inspected. For each observation the number of larvae reported was the total on the 10 most infested plants. Results reported are an average of three replicates.

## CC1(C)C(C=C(Cl)Cl)C1C(=O)OC(C#N)c1cccc(Oc2ccccc2)c1 [A, (R,S)-α-cyano-3-phenoxybenzyl-(1R,S)-cis-trans-3-(2,2-dichlorovinyl)-2,2-dimethylcyclopropanecarboxylate]
A 200 ml per hectare
  Number Larvae Alive 3 DAT: 10
  Number Larvae Alive 7 DAT: 18
  Number Larvae Alive 14 DAT: 15
  Number Larvae Alive 21 DAT: 43
  Number Larvae Alive 28 DAT: 20
A 200 ml per hectare, total on 10 most infested plants, average of 3 replicates
  Number Larvae Alive 0 Days: 303

## C/C(=N\C#N)N(C)Cc1ccc(Cl)nc1 [B, (E)-N^1-[(6-chloro-3-pyridyl)methyl]-N^2-cyano-N^1-methylacetamidine]
B 100 g per hectare
  Number Larvae Alive 3 DAT: 8
  Number Larvae Alive 7 DAT: 22
  Number Larvae Alive 14 DAT: 18
  Number Larvae Alive 21 DAT: 38
  Number Larvae Alive 28 DAT: 47
  Number Larvae Alive 0 Days: 362

## N#Cc1nn(-c2c(Cl)cc(C(F)(F)F)cc2Cl)c(N)c1[S+]([O-])C(F)(F)F (stereo not drawn) [C, 5-amino-1-(2,6-dichloro-α,α,α-trifluoro-p-tolyl)-4-trifluoromethylsulfinylpyrazole-3-carbonitrile]
C 100 ml per hectare
  Number Larvae Alive 3 DAT: 2
  Number Larvae Alive 7 DAT: 0
  Number Larvae Alive 14 DAT: 0
  Number Larvae Alive 21 DAT: 22
  Number Larvae Alive 28 DAT: 17
  Number Larvae Alive 0 Days: 359
